# Values of other authors in patent US6476002B1 (priority 1997, dated 2002).
# Columns and labels:
# [1] = test system: wound healing; conditions: from literature / copending application
# [2] = test system: rats with collagen arthritis; conditions: reported by Peacock et al. 1992
smiles,measurement,setting,value
CO[C@@H]1[C@H](OC(=O)NC(=O)CCl)CC[C@]2(CO2)[C@H]1[C@@]1(C)O[C@@H]1CC=C(C)C [AGM-1470],effect on wound healing,[1],inhibits wound healing
same,joint swelling in rats with collagen arthritis,[2],reduces joint swelling
